Test results reported in patent US20240139280A1, “USE OF HIF-1-ALPHA INHIBITORS IN CANCER IMMUNOTHERAPY” (ONCOC4, INC., priority 2021, published 2024).

Legend:
E0771 tumor = E0771 tumor growth in mice (incl. shRNA sublines, cell depletion); assay type: in vivo
Procedure: (§1) FIGS. 3A-D show the therapeutic effects of echinomycin on tumor growth in immunodeficient and immunocompetent mice. FIG. 3A. Experimental design. Three murine tumor lines were tested: 4T1, E0771, or MC38. For each, immunodeficient and immunocompetent mice were inoculated (day 0), and treatment was initiated with control liposomes (vehicle) or echinomycin liposomes (LEM) on day 6, indicated by arrows in FIGS. 3B-3D. The kinetics of tumor growth were compared to deduce the role of adaptive immunity in the therapeutic effects of echinomycin. FIG. 3B. 4T1 cells (1×10^6) were transplanted into mammary fat pad of NSG and BALB/c mice, which received vehicle or echinomycin (0.15 mg/kg) (arrows). Mean tumor volumes±SEM are shown for one of two independent experiments (n=10/group). FIG. 3C. Kinetics of E0771 tumor growth. E0771 cells (0.7×10^6) were transplanted into mammary fat pad of NSG and C57BL/6 mice, which received vehicle or echinomycin (0.25 mg/kg) (arrows). Mean tumor volumes±SEM are shown for one of two independent experiments (n=5/group). FIG. 3D. Kinetics of MC38 tumor growth. MC38 cells (1×10^6) were transplanted subcutaneously into NSG and C57BL/6 mice, which received vehicle or echinomycin (0.15 mg/kg) (blue arrows). Mean tumor volumes±SEM are shown for one of two independent experiments (n=5/group).
FIGS. 4A-D show the effects of pharmacological and/or genetic targeting of HIF-1α on E0771 tumor growth in immunodeficient or immunocompetent mice. FIG. 4A. Experimental design. Three sublines of E0771 were generated by lentiviral transduction: scrambled shRNA (sh^−Scr), or shRNA for the Hif1α (sh^−Hif1α) or Pdl1 (sh^−Pdl1) genes. For each subline, 0.5×10^6 cells were orthotopically transplanted into NSG or C57BL/6 mice (day 0), which received vehicle or echinomycin (0.25 mg/kg) starting day 6. FIG. 4B. Effects of Hif1α or Pdl1 knockdown on E0771 growth among immunodeficient or immunocompetent recipients. FIG. 4C. Effects of vehicle or echinomycin on sh^−Scr, sh^−Hif1α, or sh^−Pdl1 E0771 growth in immunocompetent C57BL/6 recipients. FIG. 4D. Effects of vehicle or echinomycin (arrows) on sh^−Scr, sh^−Hif1α, or sh^−Pdl1 E0771 growth in immunodeficient NSG recipients. Data shown are means+/−SEM (n=5/group) and are representative of 2 experiments.
FIGS. 5A-D show at echinomycin potentiates the therapeutic effect of anti-CTLA-4 antibody. FIG. 5A. Experimental design. In 4T1, E0771, or MC38 syngeneic tumor models, the effects of echinomycin on tumor growth were tested in combination with anti-CTLA-4 therapy (9D9). Tumor growth kinetics in mice receiving vehicle, echinomycin, and anti-CTLA-4 (9D9) monotherapies, or anti-CTLA-4+anti-PD-1 (9D9+RMP1-14) are shown. Starting on day 6 after tumor cell inoculation, mice received vehicle or echinomycin and/or various mAbs. The mean tumor volumes±SEM are shown for each group. FIG. 5B. Effects of 9D9+echinomycin on 4T1 tumor growth. BALB/c mice received vehicle, liposomal echinomycin (LEM, 0.15 mg/kg) (blue arrows), 9D9 (0.2 mg/mouse/injection) (red arrows), or both (n=10/group). Data shown for one of three independent experiments. FIG. 5C. Effects of 9D9+echinomycin on syngeneic E0771 growth. E0771 cells (0.5×10^6) were orthotopically transplanted into the mammary fat pads of C57BL/6 mice. Mice received vehicle or echinomycin (0.25 mg/kg) and/or various mAbs (0.2 mg/mouse/injection) (red arrows). Representative data shown for one of three independent experiments (n=5/group). FIG. 5D. […]

4T1 tumor = 4T1 tumor growth in mice; assay type: in vivo; settings: for 4T1 tumor growth: echinomycin 0.15 mg/kg, vs vehicle
Procedure: as §1
FIGS. 5A-D show at echinomycin potentiates the therapeutic effect of anti-CTLA-4 antibody. FIG. 5A. Experimental design. In 4T1, E0771, or MC38 syngeneic tumor models, the effects of echinomycin on tumor growth were tested in combination with anti-CTLA-4 therapy (9D9). Tumor growth kinetics in mice receiving vehicle, echinomycin, and anti-CTLA-4 (9D9) monotherapies, or anti-CTLA-4+anti-PD-1 (9D9+RMP1-14) are shown. Starting on day 6 after tumor cell inoculation, mice received vehicle or echinomycin and/or various mAbs. The mean tumor volumes±SEM are shown for each group. […]
Tumor Models The details of each experiment are specified in the figure legends. […] Tumor volumes were calculated and reported based on the formula […], where a is the longer diameter, and b is the shorter diameter. […]

`CSC1SC[C@H]2C(=O)N(C)[C@@H](C(C)C)C(=O)OC[C@@H](NC(=O)c3cnc4ccccc4n3)C(=O)N[C@@H](C)C(=O)N(C)[C@@H]1C(=O)N(C)[C@@H](C(C)C)C(=O)OC[C@@H](NC(=O)c1cnc3ccccc3n1)C(=O)N[C@@H](C)C(=O)N2C` (stereo in doubt) [echinomycin, N,N′-(2,4,12,15,17,25-hexamethyl-11,24-bis(1-methylethyl)-27-(methylthio)-3,6,10,13,16,19,23,26-octaoxo-9,22-dioxa-28-thia-2,5,12,15,18,25-hexaazabicyclo(12.12.3)nonacosane-7,20-diyl)bis(2-quinoxalinecarboxamide)] was tested, and the “E0771 tumor growth, combination study” value (E0771 tumor; C57BL/6, echinomycin 0.25 mg/kg, mAbs 0.2 mg/mouse/injection, vs vehicle) was “significant inhibition of tumor growth”, the “sh-Scr E0771 tumor growth” value (E0771 tumor; C57BL/6 compared to NSG recipients, echinomycin 0.25 mg/kg) was “more effectively inhibited” and the “sh-Pdl1 E0771 tumor growth” value (E0771 tumor; C57BL/6 or NSG recipients, echinomycin 0.25 mg/kg) was “did not further suppress”. The E0771 tumor growth (E0771 tumor; immunocompetent C57BL/6, echinomycin 0.25 mg/kg) was “therapeutic effect on immune competent”, the “sh-Hif1α E0771 tumor growth” value (E0771 tumor; regardless of recipient strain (C57BL/6, NSG), echinomycin 0.25 mg/kg) was “did not inhibit” and the “4T1 growth inhibition, immunocompetent vs immunodeficient mice” value (4T1 tumor; BALB/c vs NSG) was “more significantly inhibited in immunocompetent mice than in immunodeficient mice”. For the same molecule, the 4T1 tumor growth (4T1 tumor; immunocompetent BALB/c) was “significantly inhibited 4T1 tumor growth” and the 4T1 tumor growth (4T1 tumor; immunodeficient NSG) was “significantly inhibited 4T1 tumor growth”.
